Results from publication PMC12865225 (Clinical and Translational Science, 2026).
pIC50: −log10 of the molar value.

Experiments:
[1] = molecular target: T1, OAT3 (Homo sapiens, UniProt Q8TCC7); assay: OAT3 inhibition with 30 min preincubation, fluorescein
T1 sequence (Q8TCC7 1-542): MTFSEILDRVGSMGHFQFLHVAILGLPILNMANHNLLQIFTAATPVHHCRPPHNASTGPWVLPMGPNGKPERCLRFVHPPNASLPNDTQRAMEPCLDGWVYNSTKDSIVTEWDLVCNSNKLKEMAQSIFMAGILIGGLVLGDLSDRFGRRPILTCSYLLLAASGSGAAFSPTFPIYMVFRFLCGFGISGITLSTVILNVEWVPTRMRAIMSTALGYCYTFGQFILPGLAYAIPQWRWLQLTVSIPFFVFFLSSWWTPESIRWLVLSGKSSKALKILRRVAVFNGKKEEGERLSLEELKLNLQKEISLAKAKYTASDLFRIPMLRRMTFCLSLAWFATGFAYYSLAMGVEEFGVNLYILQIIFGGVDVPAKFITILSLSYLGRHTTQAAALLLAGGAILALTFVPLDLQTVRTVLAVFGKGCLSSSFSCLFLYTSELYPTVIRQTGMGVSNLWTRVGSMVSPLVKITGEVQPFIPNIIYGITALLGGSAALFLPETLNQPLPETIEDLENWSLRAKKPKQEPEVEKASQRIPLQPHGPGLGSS
Method: In the OATP inhibition assays, inhibitors in warm TP‐buffer were directly applied to cells after media removal, followed by a 30‐min preincubation step in the presence of inhibitors. No preincubation step was included in the OAT inhibition assays. The inhibition assays were conducted as described above, except that inhibitors were included in the substrate solution. The rosuvastatin concentration was 2.5 μM in the OATP inhibition assays, and the transport assays were conducted for 2 min [24]. For the inhibition studies of OAT1 and OAT3, 5 μM fluorescein was assayed within 5 min, while 34 nM methotrexate within a 10 min assay was employed as the substrate for OAT2 and OAT4 [25, 26, 27, 28]. OAT1 and OAT3 cells were lysed with 200 μL of 1 M sodium hydroxide for 10 min, and 150 μL of these samples were transferred to a black well plate for fluorescein quantification. OAT2 and OAT4 cells were lysed with 200 μL of 0.1% Triton‐X100 for 10 min, and 150 μL of the samples were mixed with 4 mL of scintillation cocktail (Opti‐Fluor from PerkinElmer, Waltham, MA, USA). Each inhibition assay included a vehicle control without an inhibitor.
Cells were pre-incubated with the inhibitors and
vehicle for 30 min before the assay was initiated with fresh solutions of inhibitors and substrate.
The uptake into control cells was subtracted from the uptak e into OAT3-expressing cells for […]

[2] = molecular target: T2, OATP1B3 (Homo sapiens, UniProt Q9NPD5); assay: OATP1B3 inhibition with fluorescent substrate 8-Fluo-cAMP in HEK293 cells; assay type: cell-based; conditions: 2.5 µM 8-Fluo-cAMP, 5 min, 30 min preincubation
T2 construct: expressed in transfected cells; host or cells: HEK293 (recombinant baculovirus-mediated transduction)
T2 sequence (Q9NPD5 1-702): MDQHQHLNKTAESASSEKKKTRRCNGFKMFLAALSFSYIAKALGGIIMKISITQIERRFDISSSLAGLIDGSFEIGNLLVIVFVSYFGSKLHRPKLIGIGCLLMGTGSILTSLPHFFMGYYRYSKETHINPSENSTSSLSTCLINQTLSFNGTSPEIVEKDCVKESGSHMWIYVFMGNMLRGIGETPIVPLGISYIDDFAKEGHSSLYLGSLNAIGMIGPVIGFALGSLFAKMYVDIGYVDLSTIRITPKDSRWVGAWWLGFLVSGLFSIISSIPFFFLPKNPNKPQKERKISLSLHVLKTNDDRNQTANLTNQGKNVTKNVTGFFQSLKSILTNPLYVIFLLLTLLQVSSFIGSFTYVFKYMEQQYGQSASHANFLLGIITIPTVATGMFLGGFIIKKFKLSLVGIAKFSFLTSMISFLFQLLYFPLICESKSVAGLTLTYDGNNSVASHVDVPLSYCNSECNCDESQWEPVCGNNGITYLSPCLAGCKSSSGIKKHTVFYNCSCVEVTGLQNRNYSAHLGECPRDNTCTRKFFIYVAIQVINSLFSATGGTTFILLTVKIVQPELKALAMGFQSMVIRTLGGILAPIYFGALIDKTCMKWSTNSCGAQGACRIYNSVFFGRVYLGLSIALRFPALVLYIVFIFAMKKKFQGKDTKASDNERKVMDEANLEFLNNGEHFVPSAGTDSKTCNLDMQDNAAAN
Method: 8- (2- [Fluoresceinyl]aminoethylthio)adenosine- 3', 5'- cyclic monophosphate (8-Fluo-cAMP) was acquired from Biolog Life Science Institute (Bremen, Germany), 4′,5′-dibromofluorescein was acquired from Sigma-Aldrich (St. Louis, MO, USA) and 2′,7′-dichlorofluorescein was acquired from Santa Cruz Biotechnology (Dallas, TX, USA).
Inhibition studies with fluorescent substrates in OATP transduced HEK293 cells The concentrations of fluorescent probe substrates were 1 µM 2′,7′-dichlorofluorescein for OATP1B1, 2.5 µM 8-Fluo-cAMP for OATP1B3 and 1 µM 4′,5′-dibromofluorescein for OATP2B1, and these concentrations were selected to be within or below of previously reported […]
reported linear ranges of transport for these substrate-transporter combinations.1,2,4 8-Fluo-cAMP was dissolved in ultrapure water, while dimethyl sulfoxide (DMSO) was used for all other compounds. […] For the quantification of fluorescent substrates, cells were lysed with 120 µl of lysis solution (1% Triton X-100, 5 mM EDTA, 150 mM sodium chloride and 150 mM TRIC-hydrochloride and adjusted to pH 8 with sodium hydroxide) for 30 min at 300 RPM shaking before transferring 80 µl of samples to a transparent 96-well plate containing 20 µl of 0.5 M sodium hydroxide. […] The plates were measured with a fluorescent plate reader (Varioskan LUX from ThermoFisher Scientific). […]

Row | SMILES | pIC50 [1] | pIC50 [2]
1 | Cc1onc(-c2c(F)cccc2Cl)c1C(=O)N[C@@H]1C(=O)N2[C@@H]1SC(C)(C)[C@@H]2C(=O)O [Flucloxacillin] | 4.52 | 4.33
2 | Cc1onc(-c2c(Cl)cccc2Cl)c1C(=O)N[C@@H]1C(=O)N2[C@@H]1SC(C)(C)[C@@H]2C(=O)O [Dicloxacillin] | 4.74 | 5.37
